# Results taken from publication PMC10912603 (Food Chemistry: X, 2024).
# Columns and labels:
# anti-EUGs mAb [1] = experiment: broad-spectrum indirect competitive ELISA; type: binding, mice; conditions: for CR (cross-reactivity): CR=[(IC50 eugenol)/(IC50 analog)]×100%; for LOD (IC10) / linear range (IC20–IC80): in buffer solution
# anti-EUGs mAb [2] = experiment: antibody affinity by saturation concentration method; type: binding, mice; conditions: mAb to eugenol
# [3] = ref Li et al., 2015; cited from earlier work
# 1B5 mAb = conditions: previously reported mAb; ref [2] Lei et al., 2023; cited from earlier work
# [4] = National Toxicology Program; ref Li et al., 2015; cited from earlier work
Molecule,CR (cross-reactivity) (anti-EUGs mAb [1]) [%],LOD (IC10) (anti-EUGs mAb [1]) [ng/mL],linear range (IC20–IC80) (anti-EUGs mAb [1]) [ng/mL],further results
CCc1ccc(O)c(OC)c1 [4-Ethyl-2-methoxyphenol],8.7,,,
CCOC(=O)c1ccc(N)cc1 [Benzocaine],<0.4,,,
Oc1ccccc1O [Catechol],<0.4,,,
C=CCc1ccc(O)c(OC)c1 [Eugenol],100,3.16,7.92 to 184.05,dissociation constant Ka (anti-EUGs mAb [2]; Ka is the inverse of Kd): 1.3e+09 L/mol; Kd (anti-EUGs mAb [2]; read-out: affinity constant Kd): 0.77 nM; IARC carcinogen category [3]: Group 3 carcinogen; IC50 of mAb 1B5 (1B5 mAb): 9.23 ng/mL
COc1ccccc1O [Guaiacol],<0.4,,,
C=CCc1ccc(OC)c(OC)c1 [Methyl eugenol],4773.8,0.06,0.15 to 4.30,liver cancer risk [4]: potential to elevate the risk of liver cancer
C/C=C/c1ccc(OC)c(OC)c1 [Methyl isoeugenol],8679.5,0.02,0.06 to 3.04,
CC(C)c1cccc(C(C)C)c1O [Propofol],<0.4,,,
CCCCNc1ccc(C(=O)OCCN(C)C)cc1 [Tetracaine],<0.4,,,
CCOC(=O)c1cccc(N)c1.CS(=O)(=O)O [Tricaine methanesulfonate],<0.4,,,
COc1cc(C=O)ccc1O [Vanillin],<0.4,,,
COc1ccc(C=O)cc1OC [Veratraldehyde],<0.4,,,
Isoeugenol,25460.0,0.00935,0.026 to 0.865,
